The source of these data is US8859559B2, “Substituted pyrazines and their use in the treatment of disease” (Boehringer Ingelheim International GmbH, priority 2011, dated 2014).

SMILES strings stand for the structures.

The target of this test is T1, ENaC (Epithelial Sodium Channel) (Mus musculus, UniProt Q61180+Q9WU38+Q9WU39).
T1 construct: Mouse kidney M-1 cells were cultivated in DMEM; endogenous in cells; host or cells: Mouse kidney M-1 cells (dexamethasone-treated, on transwell filters)
T1 sequence (Q61180 1-699): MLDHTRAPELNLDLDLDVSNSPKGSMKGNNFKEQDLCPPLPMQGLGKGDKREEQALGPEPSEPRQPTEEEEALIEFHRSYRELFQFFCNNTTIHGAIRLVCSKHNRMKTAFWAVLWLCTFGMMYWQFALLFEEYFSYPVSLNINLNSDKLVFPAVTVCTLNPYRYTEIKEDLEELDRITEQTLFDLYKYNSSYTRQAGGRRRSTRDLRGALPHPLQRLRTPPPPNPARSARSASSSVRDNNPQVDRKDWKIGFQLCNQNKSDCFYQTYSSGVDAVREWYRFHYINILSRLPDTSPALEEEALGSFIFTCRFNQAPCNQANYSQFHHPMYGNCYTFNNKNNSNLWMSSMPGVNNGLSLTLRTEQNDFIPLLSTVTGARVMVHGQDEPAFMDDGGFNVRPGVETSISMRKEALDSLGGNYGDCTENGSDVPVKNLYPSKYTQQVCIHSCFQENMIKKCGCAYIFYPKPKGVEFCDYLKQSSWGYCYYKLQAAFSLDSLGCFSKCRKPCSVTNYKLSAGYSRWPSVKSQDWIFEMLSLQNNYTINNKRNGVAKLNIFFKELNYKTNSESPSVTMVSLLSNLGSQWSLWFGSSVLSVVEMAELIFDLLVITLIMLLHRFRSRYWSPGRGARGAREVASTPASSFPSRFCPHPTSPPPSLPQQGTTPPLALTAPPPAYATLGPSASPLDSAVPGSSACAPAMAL
T1 sequence (Q9WU38 1-638): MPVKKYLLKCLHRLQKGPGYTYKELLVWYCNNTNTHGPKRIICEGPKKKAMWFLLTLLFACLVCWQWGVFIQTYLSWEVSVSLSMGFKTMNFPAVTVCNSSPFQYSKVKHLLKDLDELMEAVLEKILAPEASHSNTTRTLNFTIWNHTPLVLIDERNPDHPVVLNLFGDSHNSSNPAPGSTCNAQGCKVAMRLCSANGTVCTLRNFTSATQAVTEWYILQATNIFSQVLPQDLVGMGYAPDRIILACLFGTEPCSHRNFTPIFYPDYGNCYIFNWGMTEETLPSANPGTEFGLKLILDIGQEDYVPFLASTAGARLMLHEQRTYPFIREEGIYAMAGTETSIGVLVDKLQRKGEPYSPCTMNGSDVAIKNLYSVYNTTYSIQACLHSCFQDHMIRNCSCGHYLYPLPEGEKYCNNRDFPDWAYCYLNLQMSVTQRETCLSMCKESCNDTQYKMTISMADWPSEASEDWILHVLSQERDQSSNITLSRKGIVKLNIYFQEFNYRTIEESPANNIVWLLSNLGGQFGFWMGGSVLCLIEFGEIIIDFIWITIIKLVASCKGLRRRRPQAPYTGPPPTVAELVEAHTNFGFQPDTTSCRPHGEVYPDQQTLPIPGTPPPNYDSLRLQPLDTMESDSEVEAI
T1 sequence (Q9WU39 1-655): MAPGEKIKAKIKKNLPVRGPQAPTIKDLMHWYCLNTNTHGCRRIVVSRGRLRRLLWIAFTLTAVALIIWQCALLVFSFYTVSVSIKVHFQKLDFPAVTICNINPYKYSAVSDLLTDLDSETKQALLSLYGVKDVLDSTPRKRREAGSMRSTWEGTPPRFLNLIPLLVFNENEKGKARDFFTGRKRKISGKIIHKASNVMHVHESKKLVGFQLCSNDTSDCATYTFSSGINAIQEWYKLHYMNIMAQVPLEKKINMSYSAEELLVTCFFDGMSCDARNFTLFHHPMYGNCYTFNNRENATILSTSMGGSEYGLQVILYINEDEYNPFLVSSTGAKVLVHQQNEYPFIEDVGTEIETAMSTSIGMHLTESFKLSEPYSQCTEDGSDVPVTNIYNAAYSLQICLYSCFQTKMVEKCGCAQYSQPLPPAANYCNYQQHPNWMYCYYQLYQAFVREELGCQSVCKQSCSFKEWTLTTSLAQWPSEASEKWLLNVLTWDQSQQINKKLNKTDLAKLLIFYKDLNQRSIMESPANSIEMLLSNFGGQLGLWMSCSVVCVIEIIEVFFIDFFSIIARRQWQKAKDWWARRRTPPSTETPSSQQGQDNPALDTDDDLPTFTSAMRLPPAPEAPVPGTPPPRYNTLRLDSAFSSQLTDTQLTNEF
The test is described as follows: Ussing chamber: inhibition of amiloride sensitive short circuit current (I_sc) in M-1 cells. The format is cell-based. The note with it: mouse kidney M-1 cells. The essentials:
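Mouse kidney M-1 cells grown 10-12 days on transwell filters with 5 μM dexamethasone; I_sc recorded under voltage clamp at 37° C in Caco-2 transport buffer. Compounds added apically at 3 μM or 1-3-10 μM; 3 μM apical amiloride added at the end defines the amiloride-sensitive current; results as % inhibition of amiloride effect or IC50.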
For orientation: IC50 means the concentration that inhibits the measured activity by half. `CC(C)(C)OC(=O)c1ccc(CN2CCC[C@H](NC(N)=NC(=O)c3nc(Cl)c(N)nc3N)C2)cc1` [Example 1.59] came in with an IC50 of 227 nM. This counts as sub-micromolar. To `[N-]=[N+]=Nc1ccc(CN2CCC(N/C(N)=N/C(=O)c3nc(Cl)c(N)nc3N)CC2)cc1` [Example 1.10] belongs 6 nM; to `NC(=NC(=O)c1nc(Cl)c(N)nc1N)NC1CCN(Cc2cccc(C(=O)NCCOCCO)c2)CC1` [Example 1.65], 4 nM.

The molecule `COc1cc(CN2CCC(NC(N)=NC(=O)c3nc(Cl)c(N)nc3N)CC2)cc(C(=O)O)c1` [Example 1.64] showed an IC50 of 17 nM. Against the preceding molecule, the IC50 is about 4.2-fold higher. To `NC(=NC(=O)c1nc(Cl)c(N)nc1N)NC1CCN(Cc2ccc(C(=O)NCCc3cccnc3)cc2)CC1` [Example 1.24] belongs 3 nM; to `NC(=NC(=O)c1nc(Cl)c(N)nc1N)NC1CCN(Cc2ccc(-n3cc(CCC(=O)N(CCOCCOCCO)CCOCCOCCO)nn3)cc2)CC1` [Example 3.16], 18 nM. To `COC(=O)COc1ccc(CN2CC[C@@H](NC(N)=NC(=O)c3nc(Cl)c(N)nc3N)C2)cc1` [Example 1.46] belongs 73 nM; to `NC(=NC(=O)c1nc(Cl)c(N)nc1N)NC1CCN(Cc2ccc(C(=O)NCCOCCOCCOCCn3cc(COCCO)nn3)cc2)CC1` [Example 3.8], 19 nM; to `COC(=O)CCc1ccc(CN2CCC(NC(N)=NC(=O)c3nc(Cl)c(N)nc3N)CC2)cc1` [Example 1.45], 10 nM. To `N/C(=N\C(=O)c1nc(Cl)c(N)nc1N)NC1CCN(C(C(=O)O)c2ccccc2)CC1` (centres unmarked) [Example 8.1] belongs 136 nM; to `CCOP(=O)(Cc1ccc(CN2CCC(NC(N)=NC(=O)c3nc(Cl)c(N)nc3N)CC2)cc1)OCC` [Example 1.8], 10 nM. Take `NC(=NC(=O)c1nc(Cl)c(N)nc1N)NC1CCN(Cc2ccc(C(=O)NCCOCCOCCO)cc2)CC1` [Example 1.39]: the IC50 stood at 6 nM. This IC50 lies about 1.7-fold lower than the previous one.

Take `C#CCOc1ccc(CN2CCC(NC(N)=NC(=O)c3nc(Cl)c(N)nc3N)CC2)cc1` [Example 1.4]: the IC50 stood at 4 nM. Consider `NC(=NC(=O)c1nc(Cl)c(N)nc1N)NC1CCN(Cc2ccc(-n3cc(C(=O)O)ccc3=O)cc2)CC1` [Example 8.4], for which inhibition was half-maximal at 210 nM (IC50). The molecule `NC(=NC(=O)c1nc(Cl)c(N)nc1N)NC1CCCN(Cc2ccccc2)CC1` (centres unmarked) [Example 1.22] had an IC50 of 14 nM. Turning to `NC(=NC(=O)c1nc(Cl)c(N)nc1N)NC1CCN(Cc2ccc(-n3cc(COC[B-](F)(F)F)nn3)cc2)CC1` [Example 3.14], the IC50 came to 6 nM. To `NC(=NC(=O)c1nc(Cl)c(N)nc1N)NC1CCN(Cc2ccc(C(=O)O)cc2Cl)CC1` [Example 8.11] belongs 50 nM. `NC(=NC(=O)c1nc(Cl)c(N)nc1N)NC1CCN(Cc2cccc(-c3cn(CCOCCOCCOCCNCCOCCOCCOC(c4ccccc4)(c4ccccc4)c4ccccc4)nn3)c2)CC1` [Example 3.40] showed an IC50 of 1 nM. To `CC(C)(C)OC(=O)c1ccc(CN2CCC[C@@H](NC(N)=NC(=O)c3nc(Cl)c(N)nc3N)C2)cc1` [Example 1.61] belongs 47 nM; to `CC(=O)Oc1ccc(CN2CCC(N/C(N)=N/C(=O)c3nc(Cl)c(N)nc3N)CC2)cc1` [Example 1.41], 7 nM; to `NC(=NC(=O)c1nc(Cl)c(N)nc1N)NC1CCN(Cc2ccc(C(=O)NCCc3cn(CCCO)cn3)cc2)CC1` [Example 1.52], 2 nM.

As for `N/C(=N\C(=O)c1nc(Cl)c(N)nc1N)NC1CCN(Cc2ccc(CCn3cc(CCC(=O)N(CCO)CCO)nn3)cc2)CC1` [Example 3.1], the IC50 stood at 29 nM.

On to `NC(=NC(=O)c1nc(Cl)c(N)nc1N)NC1CCN(Cc2ccc(-n3cc(COCCO)nn3)cc2)CC1` [Example 3.11], for which the half-inhibitory concentration (IC50) came to 6 nM.
